Read-outs that look alike come from different tables or passages of the source.
How the values were obtained:
Assay in all cases: Post-emergence efficacy, Method A
Format in all cases: in vivo
[1] = tested on: Amaranthus palmeri (AMAPA); conditions: read-out: Control of weed species after post-emergence application, AMAPA
Setaria faberi (SETFA) = conditions: read-out: Control of weed species after post-emergence application, SETFA
Eleusine indica (ELEIN) = conditions: read-out: Control of weed species after post-emergence application, ELEIN
[2] = tested on: Chenopodium album (CHEAL); conditions: read-out: Control of weed species after post-emergence application, CHEAL
[3] = tested on: Digitaria sanguinalis (DIGSA); conditions: read-out: Control of weed species after post-emergence application, DIGSA
[4] = tested on: Echinochloa crus-galli (ECHCG); conditions: read-out: Control of weed species after post-emergence application, ECHCG
[5] = tested on: Ipomoea hederacea (IPOHE); conditions: read-out: Control of weed species after post-emergence application, IPOHE
Lolium perenne (LOLPE) = conditions: read-out: Control of weed species after post-emergence application, LOLPE
[6] = 500 g/Ha, 100=total damage to plant, 0=no damage, evaluated after 7 and 14 days

| SMILES | pest or weed control at 500 g/ha [1, 6] | pest or weed control at 500 g/ha (Setaria faberi (SETFA); [6]) | pest or weed control at 500 g/ha (Eleusine indica (ELEIN); [6]) | pest or weed control at 500 g/ha [2, 6] | pest or weed control at 500 g/ha [3, 6] | pest or weed control at 500 g/ha [4, 6] | pest or weed control at 500 g/ha [5, 6] | pest or weed control at 500 g/ha (Lolium perenne (LOLPE); [6]) | pest or weed control at 500 g/ha [1] | pest or weed control at 500 g/ha (Setaria faberi (SETFA)) | pest or weed control at 500 g/ha (Eleusine indica (ELEIN)) | pest or weed control at 500 g/ha [2] | pest or weed control at 500 g/ha [3] | pest or weed control at 500 g/ha [4] | pest or weed control at 500 g/ha [5] | pest or weed control at 500 g/ha (Lolium perenne (LOLPE)) |
| --- | --- | --- | --- | --- | --- | --- | --- | --- | --- | --- | --- | --- | --- | --- | --- | --- |
| CC([n+]1ccc(-c2ncns2)cc1)S(=O)(=O)[O-] (stereo not drawn) [Compound A11] | 100% | 60% | 90% | 90% | 80% | 100% | 80% | 60% |  |  |  |  |  |  |  |  |
| CNC(=O)c1nc(-c2cc[n+](CCCS(=O)(=O)[O-])cc2)no1 [Compound A51] | 10% | 30% | 10% | 60% | 50% | 30% | 10% | 20% |  |  |  |  |  |  |  |  |
| CNC(=O)c1cc(-c2cc[n+](CCCS(=O)(=O)[O-])cc2)on1 [Compound A52] | 20% | 10% | 10% | 30% | 20% | 10% | 10% | 10% |  |  |  |  |  |  |  |  |
| O=S(=O)([O-])C[n+]1ccc(-c2nc(C(F)(F)F)co2)cc1 [Compound A43] | 40% | 20% | 60% | 40% | 30% | 60% | 30% | 10% |  |  |  |  |  |  |  |  |
| O=S(=O)([O-])CC[n+]1ccc(-c2ccno2)cc1 [Compound A41] | 10% | 10% | 0% | 0% | 10% | 10% | 0% | 0% |  |  |  |  |  |  |  |  |
| O=C(O)C[n+]1ccc(-c2nc(C(F)(F)F)co2)cc1 [Compound A44] | 30% | 0% | 10% | 10% | 20% | 10% | 0% | 10% |  |  |  |  |  |  |  |  |
| O=S(=O)([O-])CCC[n+]1ccc(-c2noc(C(F)(F)F)n2)cc1 [Compound A15, 3-[4-[5-(trifluoromethyl)-1,2,4-oxadiazol-3-yl]pyridin-1-ium-1-yl]propane-1-sulfonate] | 0% | 30% | 10% | 0% | 30% | 30% | 20% | 0% |  |  |  |  |  |  |  |  |
| O=S(=O)([O-])C[n+]1ccc(-c2ccsn2)cc1 [Compound A42] | 90% | 10% | 0% | 20% | 10% | 10% | 10% | 0% |  |  |  |  |  |  |  |  |
| O=C(O)CC[n+]1ccc(-c2nc(C(F)(F)F)co2)cc1 [Compound A45] | 0% | 0% | 50% | 0% | 20% | 10% | 0% | 0% |  |  |  |  |  |  |  |  |
| O=S(=O)([O-])CC[n+]1ccc(-c2ncco2)cc1 [Compound A39] | 40% | 0% | 0% | 30% | 0% | 0% | 20% | 0% |  |  |  |  |  |  |  |  |
| O=C(O)C[n+]1ccc(-c2ccno2)cc1 [Compound A40] | 10% | 0% | 0% | 0% | 0% | 0% | 20% | 0% |  |  |  |  |  |  |  |  |
| CP(=O)([O-])C[n+]1ccc(-c2ncns2)cc1 [Compound A10, methyl-[[4-(1,2,4-thiadiazol-5-yl)pyridin-1-ium-1-yl]methyl]phosphinate] |  |  |  |  |  |  |  |  | 90% | 100% | 90% | 90% | 90% | 90% | 50% | 40% |
| Cc1noc(-c2cc[n+](CCC(=O)O)cc2)n1 [Compound A50] | 40% | 80% | 40% | 70% | 90% | 20% | 30% | 50% |  |  |  |  |  |  |  |  |
| O=S(=O)([O-])C[n+]1ccc(-c2csnn2)cc1 [Compound A54] | 20% | 0% | 20% | 20% | 10% | 0% | 20% | 0% |  |  |  |  |  |  |  |  |
| Cc1nsc(-c2cc[n+](CS(=O)(=O)[O-])cc2)n1 [Compound A2, [4-(3-methyl-1,2,4-thiadiazol-5-yl)pyridin-1-ium-1-yl]methanesulfonate] | 100% | 70% | 80% | 90% | 90% | 60% | 70% | 60% |  |  |  |  |  |  |  |  |
| COP(=O)([O-])C[n+]1ccc(-c2ncns2)cc1 [Compound A30, methoxy-[[4-(1,2,4-thiadiazol-5-yl)pyridin-1-ium-1-yl]methyl]phosphinate] |  |  |  |  |  |  |  |  | 90% | 90% | 90% | 70% | 90% | 90% | 50% | 30% |
| O=S(=O)([O-])CC[n+]1ccc(-c2nc(C(F)(F)F)ns2)cc1 [Compound A38] | 90% | 40% | 80% | 60% | 50% | 60% | 60% | 70% |  |  |  |  |  |  |  |  |
| O=P([O-])(O)C[n+]1ccc(-c2ncns2)cc1 [Compound A32, hydroxy-[[4-(1,2,4-thiadiazol-5-yl)pyridin-1-ium-1-yl]methyl]phosphinate] | 60% | 20% | 40% | 20% | 50% | 70% | 0% | 10% |  |  |  |  |  |  |  |  |
| O=S(=O)([O-])CC[n+]1ccc(-c2nc(C(F)(F)F)cs2)cc1 [Compound A21] | 70% | 70% | 80% | 0% | 70% | 90% | 10% | 20% |  |  |  |  |  |  |  |  |
| O=S(=O)([O-])C[n+]1ccc(-c2ncco2)cc1 [Compound A23] | 0% | 0% | 0% | 20% | 20% | 0% | 10% | 0% |  |  |  |  |  |  |  |  |
| CS(=O)(=O)[N-]C(=O)C[n+]1ccc(-c2ncns2)cc1 [Compound A29] | 90% | 50% | 50% | 30% | 90% | 90% | 90% | 40% |  |  |  |  |  |  |  |  |

Reference: patent US20220104493A1, “HERBICIDAL COMPOUNDS” (SYNGENTA CROP PROTECTION AG, priority 2019, published 2022)
